Experimental data: US20120270928A1, “MICRORNA COMPOUNDS AND METHODS FOR MODULATING MIR-21 ACTIVITY” (REGULUS THERAPEUTICS INC., priority 2011, published 2012)
Where “and” joins values, the source holds several entries; their conditions need not be identical. Equal values may be shown once.

Assays:
[1] = system: UUO model of kidney fibrosis; experiment: UUO model: collagen area fraction of kidney tissue (picrosirius red histology); type: in vivo, mice; details: Table N, 25070 20 mg/kg s.c.
Experimental: Control treatment groups included UUO only (sham) and UUO with PBS administered subcutaneously. An additional control group included UUO with Tween-MC/20 carrier perorally. 25070 administered subcutaneously at dose of 20 mg/kg at 5 days prior to, 2 days prior to, and 3 days after, the UUO procedure. Irbesartan was administered perorally on daily on days 0 through 7 following the UUO procedure. Animals were sacrificed on Day 10 following the UUO procedure. Kidney tissue was collected for measurement of collagen 1A1 and collagen 3A1 expression.
The ‘collagen area fraction’ is measured histologically through quantitative image processing of the area of kidney tissue that is stained red by the picrosirius red stain; the percent detected as red is normalized by the area of kidney section.

[2] = system: ischemia reperfusion injury/nephrectomy (IR/Nx) model; experiment: Ischemia reperfusion injury/nephrectomy (IR/Nx) model: urinary albumin to creatinine ratio; type: in vivo, mouse
Source text: An ischemia reperfusion injury/nephrectomy (IR/Nx) model is created in the mouse through temporary unilateral clamping of an artery in one kidney, which leads to tubule damage, inflammation, and fibrosis, followed by removal of the second kidney at a later timepoint. In this model, the acute kidney dysfunction phase is useful to test candidate agents for the treatment of acute kidney injury (i.e. up to about the first 5 days), and the later phases of kidney dysfunction are useful to model chronic fibrosis (i.e. after about the first 5 days).
Unilateral IR was induced for a period of 30 minutes. Treatment groups were as follows: sham IR procedure; IR with PBS administered subcutaneously; IR with mismatched control 25109 administered subcutaneously at a dose of 20 mg/kg; IR with anti-miR-21 compound 25070 administered subcutaneously at a dose of 20 mg/kg; and IR with anti-miR-21 compound 25923 administered subcutaneously at a dose of 20 mg/kg. PBS or anti-miR was administered on days 2, 3, 4, and 8 following IR. On day 8, the healthy kidney was removed by nephrectomy from each animal, and animals were sacrificed on day 9. Just prior to sacrifice, urine was collected by direct bladder puncture.
Urinary albumin to creatinine ratio was measured in the urine from each mouse. […] The geometric mean of the albumin to creatinine ratio in each group of mice was 16 μgAlb/mgCr (nephrectomy-only control), 127 μgAlb/mgCr (IR/Nx, PBS control), 140 μgAlb/mgCr (IR/Nx, 25109 control), 40 μgAlb/mgCr (IR/Nx, 25070), and 31 μgAlb/mgCr (IR/Nx, 25923). Blood urea nitrogen and serum creatinine levels were similar across all IR/Nx mice, and were elevated relative to nephrectomy-only control mice (data not shown).

With “AECSATCSAGTCSTGAUSAAGCSTAE (ACATCAGTCTGATAAGCTA; modified nucleosides, phosphorothioate linkages, chemistry not fully specified) [Compound 25070]” the “Collagen Area Fraction (%) Mean” value ([1]; group mean, irbesartan PO, Day 10, UUO-PBS 11.1, Tween/MC vehicle 8.0) was 8.0%, the “Collagen Area Fraction (%)” value ([1]; individual animals, irbesartan PO daily days 0-7, Day 10, picrosirius red, 20 mg/kg) was 7.632% and 9.937% and 8.015% and 6.611% and 6.319% and 11.272% and 6.803% and 7.405% and the “reduction in urinary albumin to creatinine ratio (significance)” value ([2]; 20 mg/kg subcutaneously on days 2, 3, 4, and 8) was “statistically significant reductions”. For the same sequence, the “geometric mean of the urinary albumin to creatinine ratio” value ([2]; 20 mg/kg subcutaneously on days 2, 3, 4, and 8, urine on day 9) was 40 μgAlb/mgCr.
